Experimental data published in patent US6919043B2, “Method of sterilization for container, apparatus using therefor and heat treatment for container” (Dai Nippon Printing Co., Ltd., priority 2002, dated 2005).
Where two headings read alike, the source gives them in different places.

System: Bacillus subtilis spore
Settings: rinsing 3 sec, log(adhesion bacilli/survival bacilli)
Protocol: Sterilization process was performed, changing the conditions of a detail according to the following procedure for PET bottle (bottle made from a polyethylene terephthalate) with a capacity of 500 ml.
The hot blast 3 was supplied to the interior of the bottle per minute 0.1 m from the nozzle with a bore of 10 mm, and the preheating of the bottle was carried out. The temperature of hot blast was set as 105° C.-125° C. near the nose of the nozzle, and the amount of insertions into the bottle of the nozzle was set as 30 mm. Simultaneously, the hot blast of 85° C. was turned and sprayed on the lip portion of a bottle by the flow rate of 3 per minute 0.1 m from the nozzle with a bore of 50 mm. In addition, the number of nozzles for the lip portion heating was two to one bottle. The blasting time of the hot blast from each nozzle was set up in 3 seconds. The temperature in the bottle after the hot blast supplying had reached 50° C.
The bottle was left for 0.5-3.5 seconds after the mist supplying. Then, the nozzle was inserted into the bottle and hot blast was blown for 1 second. The bore of the nozzle, the amount of insertions of the nozzle, and the temperature and the flow rate of the hot blast were the same as the preheating.
The bottle was left for 1-3.5 second after hot blast blowing in. Then, the bottle was inverted and was inserted the a nozzle a nozzle with a bore of 6 mm in the interior, and the bottle was rinsed for aseptic water which is heated by 70° C. for 3 seconds. The flow rate of aseptic water was 8.5 L/min.
Moreover, a part of process was omitted when sterilization process was performed.
About each of each sterilization conditions, five bottles with the Bacillus subtilis spore of 103, 104, and 105 was sterilized, the trypto-soy bouillon medium was distributed aseptically in the bottle, and the existence of culture and sterilization was evaluated. The bacterial number of survivals was computed by the most probable number (MPN: most probable number) in probability theory from the test result in each sterilization conditions, and the following formula estimated the sterilization effect in quest of the opposite numeric value of the number of adhesion bacilli, and the number of survival bacilli.
Sterilization effect=log (the number of adhesion bacilli/the number of survival bacilli).

OO [hydrogen peroxide]
Sterilization effect (Condition 1: preheating 50 °C, mist 35 μl, leaving 3.5 sec, hot blast Yes, standing 1.0 sec): 6.5 | Sterilization effect (Condition 2: preheating 50 °C, mist 25 μl, leaving 3.5 sec, hot blast Yes, standing 1.0 sec): 5.5 | Sterilization effect (Condition 3: preheating 50 °C (neck portion not heated from the outside), mist 20 μl, leaving 3.5 sec, hot blast Yes, standing 1.0 sec): 5.0 | Sterilization effect (Condition 4: preheating 50 °C, mist 15 μl, leaving 3.5 sec, hot blast Yes, standing 1.0 sec): 4.5 | Sterilization effect (Condition 5: preheating 50 °C (neck portion heated from the exterior), mist 20 μl, leaving 3.5 sec, hot blast Yes, standing 1.0 sec): 5.5 | Sterilization effect (Condition 6: preheating No, mist 40 μl, leaving 3.5 sec, hot blast Yes, standing 1.0 sec): 3.0 | Sterilization effect (Condition 7: preheating No, mist 20 μl, leaving 3.5 sec, hot blast Yes, standing 1.0 sec): <2 | Sterilization effect (Condition 8: preheating 50 °C, mist 30 μl, leaving 0.5 sec, hot blast Yes, standing 3.5 sec): 3.0 | Sterilization effect (Condition 9: preheating 50 °C, mist 20 μl, leaving 0.5 sec, hot blast Yes, standing 3.5 sec): <2 | Sterilization effect (Condition 10: preheating 50 °C, mist 20 μl, leaving 3.5 sec, hot blast No, standing 1.0 sec): 4.0 | Sterilization effect (Condition 11: preheating 50 °C, mist 15 μl, leaving 3.5 sec, hot blast No, standing 1.0 sec): 3.0
